These results are taken from article PMC6650409, “Modeling the binding of diverse ligands within the Ah receptor ligand binding domain” (Scientific Reports, 2019).

In one assay the target is T1, C327A mutant AhR (Mus musculus, UniProt P30561, C327A).
T1 construct: made in house; host or cells: in vitro, Promega TNT Quick rabbit reticulocyte lysate
T1 sequence (P30561 10-848 C327A): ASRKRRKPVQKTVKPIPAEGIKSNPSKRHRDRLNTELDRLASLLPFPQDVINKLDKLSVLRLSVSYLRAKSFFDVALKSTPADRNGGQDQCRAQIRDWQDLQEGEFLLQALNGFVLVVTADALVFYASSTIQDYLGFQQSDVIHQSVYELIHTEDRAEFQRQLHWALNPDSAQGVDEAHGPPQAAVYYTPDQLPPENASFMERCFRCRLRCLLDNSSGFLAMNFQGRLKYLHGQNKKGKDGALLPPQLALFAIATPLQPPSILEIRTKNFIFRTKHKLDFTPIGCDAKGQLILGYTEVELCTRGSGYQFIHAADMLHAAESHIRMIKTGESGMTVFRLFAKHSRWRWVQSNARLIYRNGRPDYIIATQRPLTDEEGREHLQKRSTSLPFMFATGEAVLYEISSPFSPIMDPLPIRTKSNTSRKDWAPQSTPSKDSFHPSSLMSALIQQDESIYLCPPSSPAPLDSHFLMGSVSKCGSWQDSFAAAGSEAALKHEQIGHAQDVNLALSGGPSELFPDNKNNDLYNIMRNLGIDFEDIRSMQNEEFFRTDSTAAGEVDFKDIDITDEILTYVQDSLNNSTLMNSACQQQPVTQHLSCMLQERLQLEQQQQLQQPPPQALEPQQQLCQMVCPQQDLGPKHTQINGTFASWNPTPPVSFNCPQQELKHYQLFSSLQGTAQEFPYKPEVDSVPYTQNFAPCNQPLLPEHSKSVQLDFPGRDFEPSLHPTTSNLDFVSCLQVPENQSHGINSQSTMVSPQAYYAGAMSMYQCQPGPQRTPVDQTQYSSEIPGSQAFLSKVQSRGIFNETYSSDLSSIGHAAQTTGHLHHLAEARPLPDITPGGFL
As to the kind of experiment: [3H]TCDD competitive ligand binding, C327A mutant AhR. The settings on record: for change of relative binding affinity versus wild-type AhR: C327A mutation, in words; for IC50: Table S6, AhR mutant C327A. The method, then: (§1) The mouse AhR (mAhR) and ARNT (mARNT) expression plasmids, mβAhR/pcDNA3 and mβArnt/pcDNA3, have been previously described. Point mutations of mβAhR/pcDNA3 were carried out using the QuikChange Lightning Mutagenesis Kit (Agilent Technologies) and all constructs were verified by sequencing.
(§2) [^3H]TCDD specific binding to wild-type or mutant mAhRs synthesized in vitro using the Promega TNT Quick coupled transcription/translation rabbit reticulocyte lysate kit (Madison, WI) was carried out as previously described. [^3H]TCDD specific binding was determined by subtracting the amount of [^3H]TCDD bound to unprogrammed lysate (nonspecific binding) from the total amount of [^3H]TCDD binding to lysate containing in vitro expressed AhR. The amount of [^3H]TCDD specific binding remaining in the presence of the indicated competitor chemical was expressed as a percent of the total [^3H]TCDD specific binding. The relative binding affinity (IC50) of each chemical was determined from concentration-dependent competitive inhibition curves obtained using [^3H]TCDD and increasing concentrations of each test chemical and the mean IC50 value was determined using three-parameter non-linear regression.

Another assay deals with T2, P291L AhR (Mus musculus, UniProt P30561, P291L).
T2 construct: made in house; host or cells: in vitro, Promega TNT Quick rabbit reticulocyte lysate
T2 sequence (P30561 10-848 P291L): T1 sequence (P30561 10-848 C327A) with P282L, A318C
The experiment in a line: [3H]TCDD competitive ligand binding, P291L mutant AhR. The conditions noted are these: for change of relative binding affinity versus wild-type AhR: P291L substitution, in words. The method, then:
as §1, §2

[1] abbreviates: Table S6, AhR mutant P291L, read-out: IC50.

SMILES strings stand for the structures. Residue numbers refer to the chain shown, from its start. Like-named read-outs stand apart in the source and are kept apart here.

In the case of `O=c1cc(-c2ccccc2)oc2ccc3ccccc3c12` [BNF], the “change of relative binding affinity versus wild-type AhR” value at C327A mutant AhR is “significantly decreased”. The IC50 at C327A mutant AhR (read-out: IC50) was 40.5 nM.
Take `Clc1cc2oc3cc(Cl)c(Cl)cc3c2cc1Cl` [TCDF, 2,3,7,8-tetrachlorodibenzofuran]: the IC50 on P291L AhR (P291L AhR, read-out: relative affinity (IC50)) was determined as 0.04 nM; at P291L AhR (setting [1]) it was 0.0435 nM. Also, the “change of relative binding affinity versus wild-type AhR” value on P291L AhR is given as “dramatically enhanced”.
For `c1ccc2c(c1)cc1ccc3cccc4ccc2c1c34` [BaP, Benzo(a)pyrene], the “change of relative binding affinity versus wild-type AhR” value on P291L AhR is “not statistically significant”. The IC50 on P291L AhR (setting [1]) is 604 nM.
Regarding `O=Cc1c2[nH]c3ccccc3c2cc2[nH]c3ccccc3c12` [FICZ, 6-formylindolo[3,2-b]carbazole], the “change of relative binding affinity versus wild-type AhR” value on C327A mutant AhR is “no significant effect”. Moreover, on C327A mutant AhR (read-out: IC50), the IC50 is 4.32 nM.
Take `c1ccc2c(c1)ccc1cc3c(ccc4ccccc43)cc12` [DBA, dibenz(a,h)anthracene]: the “change of relative binding affinity versus wild-type AhR” value at C327A mutant AhR was “no significant effect”. Besides, the IC50 at C327A mutant AhR (read-out: -LogIC50 (converted)) was 14.8 nM; at C327A mutant AhR (read-out: IC50), 14.6 nM.
